Experimental data: ChEMBL document CHEMBL4312034, “Virtual screening-driven discovery of dual 5-HT6/5-HT2A receptor ligands with pro-cognitive properties” (Eur J Med Chem, 2020)
Calls of active or inactive are those of the source. No cut-off for these calls is given here.

Assays:
[1] = target: T1, 5-hydroxytryptamine receptor 6 (Homo sapiens, UniProt P50406); assay: Displacement of [3H]-LSD from human 5-HT6R expressed in HEK293 cells after 1 hr by microbeta plate reader analysis; assay type: cell-based
T1 sequence (P50406 whole entry): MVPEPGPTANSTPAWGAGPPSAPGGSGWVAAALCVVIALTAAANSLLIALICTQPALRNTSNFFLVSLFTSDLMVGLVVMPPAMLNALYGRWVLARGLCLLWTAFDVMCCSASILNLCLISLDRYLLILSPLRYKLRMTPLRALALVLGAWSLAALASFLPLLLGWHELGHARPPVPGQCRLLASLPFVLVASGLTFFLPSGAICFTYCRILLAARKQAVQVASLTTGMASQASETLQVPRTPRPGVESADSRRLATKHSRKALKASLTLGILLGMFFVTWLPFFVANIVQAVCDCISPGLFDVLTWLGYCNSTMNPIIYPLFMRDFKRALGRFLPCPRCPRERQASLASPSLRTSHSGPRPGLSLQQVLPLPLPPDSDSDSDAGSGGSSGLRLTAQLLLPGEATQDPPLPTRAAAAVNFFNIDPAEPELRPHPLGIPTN

[2] = target: T2, 5-hydroxytryptamine receptor 1A (Homo sapiens, UniProt P08908); assay: Displacement of [3H]-8-OH-DPAT from human 5-HT1A receptor expressed in HEK293 cells after 1 hr by microbeta plate reader analysis; assay type: cell-based
T2 sequence (P08908 whole entry): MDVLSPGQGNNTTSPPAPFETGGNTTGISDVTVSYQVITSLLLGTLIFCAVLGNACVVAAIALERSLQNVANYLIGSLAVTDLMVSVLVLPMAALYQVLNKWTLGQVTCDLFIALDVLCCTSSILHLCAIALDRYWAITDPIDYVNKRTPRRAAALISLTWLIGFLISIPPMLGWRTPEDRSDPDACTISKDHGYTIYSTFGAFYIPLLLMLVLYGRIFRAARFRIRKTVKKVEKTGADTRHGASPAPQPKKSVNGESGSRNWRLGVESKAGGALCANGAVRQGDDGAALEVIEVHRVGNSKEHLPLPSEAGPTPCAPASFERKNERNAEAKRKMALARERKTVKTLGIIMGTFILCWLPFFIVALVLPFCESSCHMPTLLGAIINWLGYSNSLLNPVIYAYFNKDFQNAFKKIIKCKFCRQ

[3] = target: 5-hydroxytryptamine receptor 2A (Homo sapiens, UniProt P28223); assay: Binding affinity to human 5-HT2AR expressed in HEK293 cells by competitive binding assay; assay type: cell-based
Chain of 5-hydroxytryptamine receptor 2A (P28223 whole entry): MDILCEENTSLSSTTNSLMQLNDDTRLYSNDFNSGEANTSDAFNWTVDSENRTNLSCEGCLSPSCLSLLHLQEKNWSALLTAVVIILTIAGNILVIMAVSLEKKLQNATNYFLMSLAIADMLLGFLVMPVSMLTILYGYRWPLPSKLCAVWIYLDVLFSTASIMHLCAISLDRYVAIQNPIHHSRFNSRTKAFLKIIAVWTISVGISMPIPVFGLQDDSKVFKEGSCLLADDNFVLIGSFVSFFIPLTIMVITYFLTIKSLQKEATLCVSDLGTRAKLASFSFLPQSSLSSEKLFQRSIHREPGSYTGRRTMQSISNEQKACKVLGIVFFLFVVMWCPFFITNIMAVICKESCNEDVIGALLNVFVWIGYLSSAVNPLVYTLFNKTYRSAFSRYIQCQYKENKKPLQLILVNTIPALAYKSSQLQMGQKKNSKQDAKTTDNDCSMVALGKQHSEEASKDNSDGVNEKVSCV

[4] = target: 5-hydroxytryptamine receptor 7 (Homo sapiens, UniProt P34969); assay: Displacement of [3H]-CT from human 5-HT7 receptor expressed in HEK293 cells after 1 hr by microbeta plate reader analysis; assay type: cell-based
Chain of 5-hydroxytryptamine receptor 7 (P34969 whole entry): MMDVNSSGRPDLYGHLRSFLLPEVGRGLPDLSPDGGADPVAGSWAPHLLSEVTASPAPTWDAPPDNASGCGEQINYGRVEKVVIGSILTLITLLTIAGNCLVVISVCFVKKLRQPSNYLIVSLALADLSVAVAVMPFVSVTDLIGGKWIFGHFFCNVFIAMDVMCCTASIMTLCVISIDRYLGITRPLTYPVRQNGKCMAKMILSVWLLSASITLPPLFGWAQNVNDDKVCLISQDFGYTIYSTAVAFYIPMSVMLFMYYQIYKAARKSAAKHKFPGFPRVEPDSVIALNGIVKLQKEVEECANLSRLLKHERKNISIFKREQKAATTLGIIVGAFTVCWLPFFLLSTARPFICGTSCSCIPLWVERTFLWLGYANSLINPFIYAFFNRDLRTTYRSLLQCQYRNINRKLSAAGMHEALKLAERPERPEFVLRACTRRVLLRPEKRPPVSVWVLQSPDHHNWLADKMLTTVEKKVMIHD

[5] = target: D(2) dopamine receptor (Homo sapiens, UniProt P14416); assay: Displacement of [3H]-raclopride from human D2R expressed in HEK293 cells after 1 hr by microbeta plate reader analysis; assay type: cell-based
Chain of D(2) dopamine receptor (P14416 whole entry): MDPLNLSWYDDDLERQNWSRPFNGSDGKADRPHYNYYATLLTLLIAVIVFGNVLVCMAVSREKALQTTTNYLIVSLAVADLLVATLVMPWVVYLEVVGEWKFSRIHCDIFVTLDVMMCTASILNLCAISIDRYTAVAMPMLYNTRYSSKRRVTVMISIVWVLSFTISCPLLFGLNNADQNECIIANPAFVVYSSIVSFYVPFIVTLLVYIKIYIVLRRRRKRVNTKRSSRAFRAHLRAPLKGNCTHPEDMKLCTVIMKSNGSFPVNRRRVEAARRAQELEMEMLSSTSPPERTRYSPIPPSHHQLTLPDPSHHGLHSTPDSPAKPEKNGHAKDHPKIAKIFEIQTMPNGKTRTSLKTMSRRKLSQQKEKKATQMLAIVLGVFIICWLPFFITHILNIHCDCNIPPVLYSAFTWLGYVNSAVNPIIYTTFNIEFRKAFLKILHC

[6] = target: T1, 5-hydroxytryptamine receptor 6; assay: Binding affinity to 5-HT6R (unknown origin) assessed as inhibitory constant
[7] = Half life in rat liver microsomes up to 60 mins by HPLC-LC/MS analysis
[8] = system: Rattus norvegicus; assay: Reversal of phencyclidine-induced memory impairment in Sprague-Dawley rat at 1 to 3 mg/kg, po for 2 hrs followed by phencyclidine treatment 45 mins prior to testing by novel object recognition test; assay type: functional, organism-based
[9] = in vitro; details: rat

Oc1ccc(-c2ccc(CNCCc3coc4ccc(F)cc34)o2)cc1
Ki [1]: 522 nM

CC(=O)Oc1ccc(-c2ccc(CNCCc3c[nH]c4ccccc34)o2)cc1
Ki [1]: 1460 nM

Oc1ccc(-c2ccc(CNCCc3c[nH]c4cc(F)ccc34)o2)cc1
Ki [2]: 202 nM | Ki [3]: 96 nM | Ki [4]: 2730 nM | Ki [5]: 446 nM | Ki [1]: 2 nM

COc1cccc2[nH]cc(CCNCc3ccc(-c4ccc(F)cc4)o3)c12
Ki [1]: 132 nM

CC(Cc1c[nH]c2ccccc12)NCc1ccc(-c2ccc(O)cc2)o1 (centres undefined)
Ki [1]: 475 nM

COc1ccc2[nH]cc(CCNCc3ccc(-c4cc(Cl)cc(Cl)c4)o3)c2c1
Ki [1]: 210 nM

CCc1cc2c(N3CCN(C)CC3)nc(C)nc2s1
Ki [6]: 316 nM

COc1cccc(-c2ccc(CNCCc3c[nH]c4cccc(OC)c34)o2)c1
Ki [1]: 247 nM

Fc1ccc2c(CCNCc3cccc(OCC(F)(F)C(F)F)c3)c[nH]c2c1 [IDALOPIRDINE]
Ki [2]: 3940 nM | half-life at 1 h ([7]; microsomes): 14 min | Ki [3]: 791 nM | Ki [4]: 8640 nM | Activity [8]: Active | Ki [5]: 1210 nM

COc1ccc2[nH]cc(CCNCc3ccc(-c4ccc(Cl)cc4)o3)c2c1
Ki [2]: 218 nM | Ki [3]: 607 nM | Ki [4]: 2170 nM | Ki [5]: 571 nM | Ki [1]: 67 nM

COc1ccc(-c2ccc(CNCCc3c[nH]c4ccccc34)o2)cc1OC
Ki [1]: 693 nM

Cc1cc(OCCN(C)C)nc(NCc2ccccc2)n1
Ki [6]: 875 nM

c1ccc2c(CCNCc3ccc(-c4ccc5c(c4)OCO5)o3)c[nH]c2c1
Ki [1]: 220 nM

CC(CSc1nc2ccccc2c(=O)n1-c1ccc(Cl)cc1)N(C)C (centres undefined)
Ki [6]: 20 nM

Clc1cccc(-c2ccc(CNCCc3c[nH]c4ccccc34)o2)c1
Ki [1]: 185 nM

c1ccc2c(-c3ccc(CNCCc4c[nH]c5ccccc45)s3)cccc2c1
Ki [1]: 418 nM

c1ccc(-c2ccc(CNCCc3c[nH]c4ccccc34)[nH]2)cc1
Ki [1]: 264 nM

COc1ccc2occ(CCNCc3ccc(-c4ccc(O)cc4)o3)c2c1
Ki [1]: 1700 nM

CN1C=C2C(NC(=S)NC2c2ccc(F)cc2)/C(=C\c2ccc(F)cc2)C1 (centres undefined)
Ki [6]: 596 nM

COc1ccc2[nH]cc(CC(C)NCc3ccc(-c4ccc(O)cc4)o3)c2c1 (centres undefined)
Ki [1]: 345 nM

Oc1ccc(-c2ccc(CNCCc3c[nH]c4ncccc34)o2)cc1
Ki [1]: 531 nM

CC(C)Oc1cccc(-c2ccc(CNCCc3c[nH]c4ccccc34)o2)c1
Ki [1]: 486 nM

Cc1nc(N2CCCN(C)CC2)c2c3c(sc2n1)CCC3
Ki [6]: 198 nM

COc1cccc2[nH]cc(CCNCc3ccc(-c4ccc(O)cc4)o3)c12
Ki [2]: 732 nM | Ki [3]: 131 nM | Ki [4]: 2100 nM | Ki [5]: 178 nM | Ki [1]: 14 nM

COc1cc2c(cc1OC)C(=O)C(CC1CCN(Cc3ccccc3)CC1)C2 (centres undefined) [DONEPEZIL]
half-life at 1 h ([7]; microsomes): 96 min | microsomal CLint at 1 h ([9]; microsomes): 14.4 µL/min/mg

COc1ccc2[nH]cc(CCNCc3ccc(-c4ccc(O)cc4)o3)c2c1
Ki [2]: 120 nM | half-life at 1 h ([7]; liver microsomes): 22 min | Ki [3]: 41 nM | microsomal CLint at 1 h ([9]; liver microsomes): 63.4 µL/min/mg | Ki [4]: 206 nM | Ki [5]: 220 nM | Ki [1]: 3 nM

Oc1ccc(-c2ccc(CNCCc3c[nH]c4ccc(Cl)cc34)o2)cc1
Ki [2]: 431 nM | Ki [3]: 33 nM | Ki [1]: 60 nM

COc1cccc2[nH]cc(CCNCc3ccc(-c4ccccc4)o3)c12
Ki [1]: 109 nM

c1ccc2c(-c3ccc(CNCCc4c[nH]c5ccccc45)o3)cccc2c1
Ki [1]: 201 nM

c1ccc(-c2ccc(CNCCc3c[nH]c4ccccc34)s2)cc1
Ki [1]: 152 nM

CC1=CC=CN2C(=O)C3C=C(S(=O)(=O)c4ccccc4)C(=N)N(Cc4ccc(F)cc4)C3N=C12 (centres undefined)
Ki [6]: 594 nM

Oc1c(CN2CCCC2)cc(CSc2ccccc2)c2cccnc12
Ki [6]: 894 nM

COc1ccc2[nH]cc(CCNCc3ccc(-c4cnc5ccccc5c4)o3)c2c1
Ki [2]: 1050 nM | Ki [3]: 843 nM | Ki [4]: 9860 nM | Ki [5]: 1020 nM | Ki [1]: 101 nM

CCCN(CCc1c[nH]c2ccccc12)Cc1ccc(-c2ccccc2)o1
Ki [1]: 334 nM

COc1cccc(-c2ccc(CNCCc3cn(C)c4ccccc34)o2)c1
Ki [1]: 556 nM

COc1ccc(Cc2nc(N3CCNCC3)nc3cccnc23)c(OC)c1
Ki [6]: 58 nM

Cn1cc(CCNCc2ccc(-c3ccccc3)o2)c2ccccc21
Ki [1]: 303 nM

Cc1ccc2[nH]cc(CCNCc3ccc(-c4ccc(O)cc4)o3)c2c1
Ki [2]: 399 nM | Ki [3]: 22 nM | Ki [4]: 51 nM | Ki [1]: 5 nM

COc1ccc2[nH]c(C)c(CCNCc3ccc(-c4ccc(O)cc4)o3)c2c1
half-life at 1 h ([7]; liver microsomes): 8 min | Ki [3]: 42 nM | microsomal CLint at 1 h ([9]; liver microsomes): 184 µL/min/mg | Ki [4]: 5320 nM | Ki [5]: 167 nM | Ki [1]: 21 nM

COc1ccc2[nH]cc(CCN(C)Cc3ccc(-c4ccc(O)cc4)o3)c2c1
half-life at 1 h ([7]; microsomes): 10 min | microsomal CLint at 1 h ([9]; microsomes): 138 µL/min/mg | Ki [1]: 199 nM

CN1CCN(c2nc(NCc3ccccc3)c3c(n2)N(C)NC3)CC1
Ki [6]: 7 nM

c1coc(-c2ccc(CNCCc3c[nH]c4ccccc34)o2)c1
Ki [1]: 419 nM

CN1CCN(c2oc(-c3ccccc3Cl)nc2S(=O)(=O)c2ccccc2)CC1
Ki [6]: 61 nM

c1ccc(-c2ccc(CNCCc3c[nH]c4ccccc34)o2)cc1
Ki [2]: 125 nM | Ki [3]: 461 nM | Ki [4]: 1280 nM | Ki [5]: 676 nM | Ki [1]: 91 nM

CN(CCc1c[nH]c2ccccc12)Cc1ccc(-c2ccccc2)o1
Ki [2]: 775 nM | Ki [3]: 199 nM | Ki [4]: 525 nM | Ki [5]: 368 nM | Ki [1]: 61 nM

CN1CCN(c2ccnc(SCc3ccccc3Cl)n2)CC1
Ki [6]: 8880 nM

COc1cccc(-c2ccc(CNCCc3c[nH]c4ccc(OC)cc34)o2)c1
Ki [2]: 91 nM | Ki [3]: 216 nM | Ki [4]: 871 nM | Ki [1]: 76 nM

COc1ccc2[nH]cc(CCNCc3ccc(-c4cn[nH]c4)o3)c2c1
Ki [2]: 146 nM | Ki [3]: 28 nM | Ki [4]: 1500 nM | Ki [5]: 1730 nM | Ki [1]: 121 nM

COc1cccc(-c2ccc(CNC(C)Cc3cn(C)c4ccccc34)o2)c1 (centres undefined)
Ki [1]: 1030 nM

O=[N+]([O-])c1ccc(-c2ccc(CNCCc3c[nH]c4ccccc34)o2)cc1
Ki [1]: 774 nM

Clc1cc(Cl)cc(-c2ccc(CNCCc3c[nH]c4ccccc34)o2)c1
Ki [1]: 266 nM

COc1ccc2[nH]cc(CCNCc3ccc(-c4cccc(O)c4)o3)c2c1
Ki [2]: 64 nM | Ki [3]: 29 nM | Ki [4]: 3150 nM | Ki [5]: 391 nM | Ki [1]: 55 nM

COc1ccc(-c2ccc(CNCCc3c[nH]c4ccc(OC)cc34)o2)cc1
Ki [2]: 334 nM | Ki [3]: 35 nM | Ki [4]: 3300 nM | Ki [5]: 1360 nM | Ki [1]: 90 nM

Oc1ccc(-c2ccc(CNCCc3c[nH]c4ccccc34)o2)cc1
Ki [2]: 292 nM | half-life at 1 h ([7]; liver microsomes): 6 min | Ki [3]: 175 nM | microsomal CLint at 1 h ([9]; liver microsomes): 222 µL/min/mg | Ki [4]: 1620 nM | Ki [5]: 757 nM | Ki [1]: 7 nM

N=C(NC1=NC2CCCCC2C(=O)N1)N1CCC(Cc2ccccc2)CC1 (centres undefined)
Ki [6]: 21 nM
